Tests used:
[1] = biological target: T1, Muscarinic acetylcholine receptor M2 (Homo sapiens, UniProt P08172); format: functional, cell-based
T1 sequence (P08172 whole entry): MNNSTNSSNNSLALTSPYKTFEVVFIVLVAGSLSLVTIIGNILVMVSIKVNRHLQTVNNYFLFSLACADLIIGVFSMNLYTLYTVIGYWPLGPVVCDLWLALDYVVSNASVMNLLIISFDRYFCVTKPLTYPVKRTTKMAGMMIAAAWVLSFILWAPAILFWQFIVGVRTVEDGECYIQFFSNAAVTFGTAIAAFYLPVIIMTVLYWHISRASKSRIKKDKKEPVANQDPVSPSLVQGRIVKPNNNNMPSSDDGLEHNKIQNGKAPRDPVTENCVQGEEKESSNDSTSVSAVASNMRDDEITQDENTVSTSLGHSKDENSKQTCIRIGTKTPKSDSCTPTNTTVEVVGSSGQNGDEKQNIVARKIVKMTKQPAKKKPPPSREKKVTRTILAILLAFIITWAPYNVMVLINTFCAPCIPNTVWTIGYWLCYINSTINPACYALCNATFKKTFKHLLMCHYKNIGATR

[2] = biological target: T2, Cannabinoid receptor 1 (Homo sapiens, UniProt P21554); format: functional, cell-based
[3] = biological target: D(1A) dopamine receptor (Homo sapiens, UniProt P21728); format: functional, cell-based
[4] = biological target: T3, 5-hydroxytryptamine receptor 1A (Homo sapiens, UniProt P08908); format: functional, cell-based
T3 sequence (P08908 whole entry): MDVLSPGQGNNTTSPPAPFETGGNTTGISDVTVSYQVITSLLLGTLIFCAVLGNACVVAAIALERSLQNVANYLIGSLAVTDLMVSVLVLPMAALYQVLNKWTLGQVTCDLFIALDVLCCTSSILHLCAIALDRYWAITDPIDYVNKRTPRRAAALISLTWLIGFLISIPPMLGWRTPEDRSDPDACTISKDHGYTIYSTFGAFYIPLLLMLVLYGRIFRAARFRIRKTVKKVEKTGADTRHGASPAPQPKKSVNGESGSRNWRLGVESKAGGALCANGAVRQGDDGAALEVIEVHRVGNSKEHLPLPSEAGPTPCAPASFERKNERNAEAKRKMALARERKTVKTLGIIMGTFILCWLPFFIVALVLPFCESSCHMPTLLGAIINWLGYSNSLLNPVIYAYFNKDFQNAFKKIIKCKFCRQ

[5] = biological target: T4, 5-hydroxytryptamine receptor 3A (Homo sapiens, UniProt P46098); format: functional
T4 sequence (P46098 whole entry): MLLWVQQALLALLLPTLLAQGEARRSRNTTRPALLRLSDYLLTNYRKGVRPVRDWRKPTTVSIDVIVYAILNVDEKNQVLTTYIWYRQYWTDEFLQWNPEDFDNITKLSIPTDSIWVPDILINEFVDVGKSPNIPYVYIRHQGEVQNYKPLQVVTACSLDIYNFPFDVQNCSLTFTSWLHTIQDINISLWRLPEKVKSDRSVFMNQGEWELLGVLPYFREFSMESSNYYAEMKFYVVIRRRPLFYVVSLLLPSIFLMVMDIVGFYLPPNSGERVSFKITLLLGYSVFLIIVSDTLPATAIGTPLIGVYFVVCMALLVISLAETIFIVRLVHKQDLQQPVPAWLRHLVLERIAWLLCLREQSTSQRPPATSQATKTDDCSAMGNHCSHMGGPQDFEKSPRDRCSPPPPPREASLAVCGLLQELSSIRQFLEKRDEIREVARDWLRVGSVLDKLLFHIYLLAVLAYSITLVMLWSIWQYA

[6] = biological target: Delta-type opioid receptor (Homo sapiens, UniProt P41143)
[7] = biological target: T5, Alpha-2A adrenergic receptor (Homo sapiens, UniProt P08913); format: functional, cell-based
T5 sequence (P08913 whole entry): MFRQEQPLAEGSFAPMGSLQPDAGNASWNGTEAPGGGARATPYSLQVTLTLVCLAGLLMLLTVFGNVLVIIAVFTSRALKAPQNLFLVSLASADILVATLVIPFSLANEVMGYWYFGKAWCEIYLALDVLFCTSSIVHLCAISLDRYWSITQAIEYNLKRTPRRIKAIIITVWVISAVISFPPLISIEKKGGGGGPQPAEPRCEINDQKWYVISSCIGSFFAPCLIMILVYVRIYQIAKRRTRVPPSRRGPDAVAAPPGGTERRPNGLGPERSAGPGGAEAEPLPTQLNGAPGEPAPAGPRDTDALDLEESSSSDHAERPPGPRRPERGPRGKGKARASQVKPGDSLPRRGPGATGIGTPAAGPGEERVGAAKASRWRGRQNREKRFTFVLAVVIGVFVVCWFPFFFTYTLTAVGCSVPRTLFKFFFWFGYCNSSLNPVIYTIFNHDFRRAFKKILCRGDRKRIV

[8] = biological target: T2, Cannabinoid receptor 1; format: functional, cell-based; remark: listed apart in the source
[9] = biological target: 5-hydroxytryptamine receptor 2B (Homo sapiens, UniProt P41595); format: functional, cell-based
[10] = biological target: T1, Muscarinic acetylcholine receptor M2
[11] = biological target: T6, Adenosine receptor A3 (Homo sapiens, UniProt P0DMS8)
T6 sequence (P0DMS8 whole entry): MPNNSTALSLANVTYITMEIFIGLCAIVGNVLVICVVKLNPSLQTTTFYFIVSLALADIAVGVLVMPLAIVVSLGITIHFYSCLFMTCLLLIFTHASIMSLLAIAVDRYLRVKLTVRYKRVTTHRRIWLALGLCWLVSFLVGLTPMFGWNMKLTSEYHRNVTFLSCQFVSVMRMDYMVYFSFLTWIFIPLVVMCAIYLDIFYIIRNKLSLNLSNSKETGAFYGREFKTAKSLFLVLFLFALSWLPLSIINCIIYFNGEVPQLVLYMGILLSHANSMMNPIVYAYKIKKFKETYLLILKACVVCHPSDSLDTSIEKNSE
Further: assay procedure not described here.

Chain of Delta-type opioid receptor (P41143 whole entry): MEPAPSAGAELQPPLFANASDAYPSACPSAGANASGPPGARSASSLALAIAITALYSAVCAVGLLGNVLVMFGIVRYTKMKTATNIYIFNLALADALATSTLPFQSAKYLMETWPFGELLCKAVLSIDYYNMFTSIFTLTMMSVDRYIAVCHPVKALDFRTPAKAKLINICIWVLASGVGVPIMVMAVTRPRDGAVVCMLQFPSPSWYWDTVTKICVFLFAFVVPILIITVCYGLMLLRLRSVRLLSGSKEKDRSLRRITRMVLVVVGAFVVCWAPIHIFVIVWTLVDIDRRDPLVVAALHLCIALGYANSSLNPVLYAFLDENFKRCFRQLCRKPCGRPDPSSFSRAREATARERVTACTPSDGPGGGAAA
T2 sequence (P21554 whole entry): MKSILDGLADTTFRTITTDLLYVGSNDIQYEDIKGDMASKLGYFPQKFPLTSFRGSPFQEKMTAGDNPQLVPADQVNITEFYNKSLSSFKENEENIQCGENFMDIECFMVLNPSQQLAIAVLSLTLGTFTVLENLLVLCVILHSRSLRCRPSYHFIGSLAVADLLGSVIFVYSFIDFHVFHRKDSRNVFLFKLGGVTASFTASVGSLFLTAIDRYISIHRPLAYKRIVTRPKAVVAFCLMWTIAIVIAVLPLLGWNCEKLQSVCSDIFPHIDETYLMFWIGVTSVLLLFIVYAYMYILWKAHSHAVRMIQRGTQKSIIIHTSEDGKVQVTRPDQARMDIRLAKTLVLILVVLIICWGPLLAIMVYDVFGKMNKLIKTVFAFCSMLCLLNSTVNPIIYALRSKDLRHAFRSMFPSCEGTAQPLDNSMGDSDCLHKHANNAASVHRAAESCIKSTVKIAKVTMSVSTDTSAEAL
Chain of 5-hydroxytryptamine receptor 2B (P41595 whole entry): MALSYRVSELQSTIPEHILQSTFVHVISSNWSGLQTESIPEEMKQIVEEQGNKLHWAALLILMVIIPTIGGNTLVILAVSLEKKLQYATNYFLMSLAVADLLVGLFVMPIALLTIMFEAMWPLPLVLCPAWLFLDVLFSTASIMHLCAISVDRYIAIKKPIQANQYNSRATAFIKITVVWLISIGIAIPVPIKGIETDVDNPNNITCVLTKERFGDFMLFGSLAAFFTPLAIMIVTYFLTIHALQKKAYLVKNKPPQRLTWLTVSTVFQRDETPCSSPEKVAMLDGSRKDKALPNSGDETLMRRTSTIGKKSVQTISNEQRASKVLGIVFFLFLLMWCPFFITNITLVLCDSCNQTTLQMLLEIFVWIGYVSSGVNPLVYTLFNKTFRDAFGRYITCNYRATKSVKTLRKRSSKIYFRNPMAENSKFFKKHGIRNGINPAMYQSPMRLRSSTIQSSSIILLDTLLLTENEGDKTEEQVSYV
Chain of D(1A) dopamine receptor (P21728 whole entry): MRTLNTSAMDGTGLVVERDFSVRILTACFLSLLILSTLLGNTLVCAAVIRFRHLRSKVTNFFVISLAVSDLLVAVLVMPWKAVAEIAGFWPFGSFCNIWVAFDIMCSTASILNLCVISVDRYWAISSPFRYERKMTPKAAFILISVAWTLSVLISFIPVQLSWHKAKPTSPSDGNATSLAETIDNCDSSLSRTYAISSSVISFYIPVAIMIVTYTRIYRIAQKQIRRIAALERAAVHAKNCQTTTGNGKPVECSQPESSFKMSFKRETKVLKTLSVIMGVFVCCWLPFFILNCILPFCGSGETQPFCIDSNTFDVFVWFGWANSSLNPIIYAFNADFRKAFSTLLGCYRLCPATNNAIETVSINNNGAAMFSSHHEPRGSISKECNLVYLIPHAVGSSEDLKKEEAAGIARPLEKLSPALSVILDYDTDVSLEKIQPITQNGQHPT

Row | Structure (SMILES) | AC50 [1] | AC50 [2] | AC50 [3] | AC50 [4] | AC50 [5] | AC50 [6] | AC50 [7] | AC50 [8] | AC50 [9] | AC50 [10] | AC50 [11]
1 | CN1C(=O)N(C)C2C1N(C)C(=O)N2C (stereo not given) [MEBICAR] | > 30 µM | > 30 µM | > 30 µM | > 30 µM | > 30 µM | > 30 µM | > 30 µM | > 30 µM | > 30 µM | > 30 µM | –
2 | Nc1ccc(/N=N/c2ccccc2)c(N)n1 [PHENAZOPYRIDINE] | > 30 µM | > 30 µM | > 30 µM | – | 3.3 µM | 2.9 µM | > 30 µM | > 30 µM | 24 µM | > 30 µM | –
3 | CO/N=C(\C(=O)N[C@@H]1C(=O)N2C(C(=O)OCOC(=O)C(C)(C)C)=C(C)CS[C@H]12)c1csc(N)n1 | – | > 30 µM | > 30 µM | > 30 µM | > 30 µM | > 30 µM | > 30 µM | > 30 µM | > 30 µM | > 30 µM | –
4 | O=C(Nc1ccccc1)OCC(CN1CCCCC1)OC(=O)Nc1ccccc1 (stereo not given) [DIPERODON] | > 30 µM | > 30 µM | > 10 µM | > 10 µM | > 10 µM | > 10 µM | > 10 µM | > 30 µM | 15 µM | > 30 µM | > 30 µM
5 | N/N=c1/cc2c(n[nH]1)CCN(C(=O)c1ccccc1)C2 [ENDRALAZINE] | – | > 30 µM | > 30 µM | > 30 µM | > 30 µM | > 30 µM | > 30 µM | > 30 µM | > 30 µM | > 30 µM | –
6 | COCC1=C(C(=O)OC(C)OC(=O)OC(C)C)N2C(=O)[C@@H](NC(=O)/C(=N\OC)c3csc(N)n3)[C@H]2SC1 (stereo not given in full) [CEFPODOXIME PROXETIL] | > 30 µM | > 30 µM | > 30 µM | > 30 µM | > 30 µM | > 30 µM | > 30 µM | > 30 µM | > 30 µM | > 30 µM | –
7 | O=C1CCC(N2C(=O)c3ccccc3C2=O)C(=O)N1 (stereo not given) [THALIDOMIDE] | > 10 µM | > 30 µM | > 10 µM | > 10 µM | > 30 µM | > 30 µM | > 10 µM | > 30 µM | > 10 µM | 14.8 µM | > 30 µM
8 | O=C(Cn1ccnc1[N+](=O)[O-])NCc1ccccc1 [BENZNIDAZOLE] | > 30 µM | > 30 µM | > 30 µM | > 30 µM | > 30 µM | > 30 µM | > 30 µM | > 30 µM | > 30 µM | > 30 µM | > 30 µM

Source: ChEMBL document CHEMBL5291721, “A preclinical secondary pharmacology resource illuminates target-adverse drug reaction associations of marketed drugs” (Nat Commun, 2023)
